In ChEMBL document CHEMBL1201862, “PubChem BioAssay data set” (2004) one finds IC50 data, which are given here for two compounds.

The structures appear in SMILES notation. The source made the active and inactive calls. No stated cut-off is given here; in the data, actives have a measured IC50 and inactives only a lower limit.

In this assay the target is Envelope glycoprotein gp160 (Human immunodeficiency virus 1, UniProt Q6QLK5). The assay is described as follows: cell-free HIV fusion peptide-binding blockers – biochemical, uHTS, fluorescence dequenching, […] (AID 1986).
Chain of Envelope glycoprotein gp160 (Q6QLK5 whole entry, the tested form may be a part): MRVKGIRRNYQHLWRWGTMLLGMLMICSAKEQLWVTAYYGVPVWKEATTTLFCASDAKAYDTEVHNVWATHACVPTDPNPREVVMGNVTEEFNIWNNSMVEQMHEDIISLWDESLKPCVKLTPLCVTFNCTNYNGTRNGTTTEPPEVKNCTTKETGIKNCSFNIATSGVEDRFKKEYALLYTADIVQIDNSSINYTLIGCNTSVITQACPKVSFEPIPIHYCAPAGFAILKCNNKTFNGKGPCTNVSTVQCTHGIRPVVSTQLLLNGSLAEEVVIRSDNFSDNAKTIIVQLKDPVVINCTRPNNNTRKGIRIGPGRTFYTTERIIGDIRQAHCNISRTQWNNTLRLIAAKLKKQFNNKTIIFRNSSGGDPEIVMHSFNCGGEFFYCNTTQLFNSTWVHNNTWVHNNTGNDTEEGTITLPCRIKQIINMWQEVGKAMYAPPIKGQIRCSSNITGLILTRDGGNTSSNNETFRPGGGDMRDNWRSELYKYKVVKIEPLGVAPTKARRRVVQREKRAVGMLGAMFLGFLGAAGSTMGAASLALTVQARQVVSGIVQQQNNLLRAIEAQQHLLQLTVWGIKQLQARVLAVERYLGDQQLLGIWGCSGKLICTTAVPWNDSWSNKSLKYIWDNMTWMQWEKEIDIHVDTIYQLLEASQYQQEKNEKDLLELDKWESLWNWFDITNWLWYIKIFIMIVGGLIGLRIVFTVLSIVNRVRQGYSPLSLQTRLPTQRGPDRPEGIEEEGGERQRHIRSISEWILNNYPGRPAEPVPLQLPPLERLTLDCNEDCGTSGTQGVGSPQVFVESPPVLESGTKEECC

Usually IC50 stands for the concentration needed to halve the response being measured. In the case of `COc1ccc(NC(=O)c2cnn3c(O)cc(C4CCN(C(=O)OC(C)(C)C)CC4)nc23)cc1Cl`, the 50% inhibitory concentration (IC50) is 16.6 µM (active).
The figure for `O=C(O)CSCC(=O)N(Cc1ccccc1)c1nc(-c2ccccc2)c(-c2ccccc2)s1` is 13.3 µM (active).
